Assay results from patent publication US20090312521A1 (priority 2004, published 2009).
Converted amounts (≈) assume the structure as drawn. “Also recorded” adds a separate entry of the source. Non-standard residues stand in square brackets, D forms with d. Residues, ends and D or L forms follow the SMILES beside them. βAla = NCCC(=O)O

How the values were obtained:
E. coli ATCC 11775 = assay type: cell-based; settings: ATCC 11775, 24 h
Description: Lyophilized peptides were dissolved in NB to give a concentration of 400 μM and filtered using 0.22 μm filter discs (Millex GV, Durapore). An overnight culture in NB was adjusted to 5×10^6 CFU/mL and inoculated into the micro titer plate wells (10 μL) containing each 100 μL of a serial 2-fold dilution (200-0.4 μM) of the tested peptide in NB. Plates were incubated while gently shaking at 37 ° C. for 24 h. Next, 80 μL suspension of each well was transported into a flat-bottom 96-well plate (Costar). The absorbance was measured at 600 nm using a μQuant micro plate spectrophotometer (Bio-Tek Instruments). All peptides were measured in quadruplo. The peptide with sequence […] (see Otvos Jr, […]; Otvos, B. I.; Hoffmann, […].; Wade, […].; Bulet, P. Protein Sci. 2000, 9, 742) was used as negative control.

Yersinia pestis KIM5 = assay type: cell-based; settings: Yersinia pestis KIM5, Gram −, BHI, 22 ° C.
[1] = system: Yersinia pseudotuberculosis; assay type: cell-based; settings: Gram −, BHI, 35 ° C.
Vibrio cholerae = experiment: Additional antimicrobial test (MIC); assay type: cell-based; settings: Gram −, BHI, 37 ° C.
Bacillus anthracis = assay type: cell-based; settings: Gram +, BHI, 37 ° C.
Bacillus globigii = experiment: Additional antimicrobial test (MIC); assay type: cell-based; settings: Gram +, 37 ° C.
Bacillus thuringiensis = experiment: Additional antimicrobial test (MIC); assay type: cell-based; settings: Gram +, BHI, 37 ° C.
Pseudomonas auruginosa = experiment: Additional antimicrobial test (MIC); assay type: cell-based
[2] = system: Methicillinresistant Staphylococcus aureus (MRSA); experiment: Additional antimicrobial test (MIC); assay type: cell-based; settings: Gram +, NB, 37 ° C.
Salmonella typhimurium = settings: murium
[3] = system: Salmonella typhimurium Rb; settings: murium Rb
[4] = system: Salmonella typhimurium Rc; settings: Gram −, NB, 37 ° C.
[5] = system: Salmonella typhimurium Rd1; settings: Salmonella typhimurium Rd1, Gram −, NB, 37 ° C.
[6] = system: Salmonella typhimurium Re; settings: Gram −, NB, 37 ° C.
mammalian serum = settings: up to four hour period; cited from earlier work
[7] = system: aminopeptidase and carboxypeptidase; experiment: mammalian serum; settings: up to four hour; cited from earlier work
Gram-negative bacteria = settings: glycosylated form; cited from earlier work
[8] = cited from earlier work
[9] = aminopeptidase and carboxypeptidase cleavage; cited from earlier work

Molecule	MIC (E. coli ATCC 11775) [µM]	MIC (Yersinia pestis KIM5)	MIC [1]	MIC (Vibrio cholerae)	MIC (Bacillus anthracis)	MIC (Bacillus globigii)	MIC (Bacillus thuringiensis)	MIC (Pseudomonas auruginosa)	MIC [2]	MIC (Klebsiella pneumoniae) [µM]	MIC (Salmonella montevideo) [µM]	MIC (Salmonella give) [µM]	MIC (Salmonella infantis) [µM]	MIC (Salmonella panama) [µM]	MIC (Salmonella typhimurium) [µM]	MIC (Salmonella enteritidis) [µM]	MIC (E. coli O157: H7) [µM]	MIC (Shigella sonnei) [µM]	MIC [3] [µM]	MIC [4] [µM]	other results
CC[C@H](C)[C@H](NC(=O)[C@@H]1CCCN1C(=O)[C@H](CCCNC(=N)N)NC(=O)[C@@H]1CCCN1C(=O)[C@H](Cc1c[nH]cn1)NC(=O)[C@H](CO)NC(=O)[C@@H](NC(=O)[C@@H]1CCCN1C(=O)[C@H](CCCNC(=N)N)NC(=O)[C@@H]1CCCN1C(=O)[C@@H](NC(=O)[C@H](Cc1ccc(O)cc1)NC(=O)[C@@H]1CCCN1C(=O)[C@H](CCCNC(=N)N)NC(=O)[C@@H]1CCCN1C(=O)[C@H](CCCCN)NC(=O)CN)[C@@H](C)O)[C@@H](C)O)C(=O)N[C@@H](CCCNC(=N)N)C(=O)N[C@H](C(=O)O)C(C)C [Peptide 4, GKPRP YTPRP TSHPR PIRV] (H-GKPRPYTPRPTSHPRPIRV-OH; N-terminus assumed)	1.6 (≈ 3.54 µg/mL)	NI at ≦100 μM	NI at ≦100 μM	NI at ≦100 μM	NI at ≦100 μM	NI at ≦100 μM	NI at ≦100 μM	NI at ≦100 μM	NI at ≦100 μM	100 (≈ 221 µg/mL)	12.5 (≈ 27.7 µg/mL)	25 (≈ 55.3 µg/mL)	25 (≈ 55.3 µg/mL)	12.5 (≈ 27.7 µg/mL)	12.5 (≈ 27.7 µg/mL)	12.5 (≈ 27.7 µg/mL)	12.5 (≈ 27.7 µg/mL)	100 (≈ 221 µg/mL)	12.5 (≈ 27.7 µg/mL)	100 (≈ 221 µg/mL)	MIC [5]: 12.5 µM (≈ 27.7 µg/mL); MIC [6]: 3.38 µM (≈ 7.48 µg/mL)
CC[C@H](C)[C@H](NC(=O)[C@@H]1CCCN1C(=O)[C@H](CCCNC(=N)N)NC(=O)[C@@H]1CCCN1C(=O)[C@H](Cc1c[nH]cn1)NC(=O)[C@H](CO)NC(=O)[C@@H](NC(=O)[C@@H]1CCCN1C(=O)[C@H](CCCNC(=N)N)NC(=O)[C@@H]1CCCN1C(=O)[C@@H](NC(=O)[C@H](Cc1ccc(O)cc1)NC(=O)[C@@H]1CCCN1C(=O)[C@H](CCCNC(=N)N)NC(=O)[C@@H]1CCCN1C(=O)[C@H](CCCCN)NC(=O)CCN)[C@@H](C)O)[C@@H](C)O)C(=O)N[C@@H](CCCNC(=N)N)C(=O)N[C@H](C(=O)O)C(C)C [Peptide 14, βAlaKPRP YTPRP TSHPR PIRV] (H-[βAla]KPRPYTPRPTSHPRPIRV-OH; N-terminus assumed)	3.1 (≈ 6.9 µg/mL)	NI at ≦100 μM	NI at ≦100 μM	NI at ≦100 μM	NI at ≦100 μM	NI at ≦100 μM	NI at ≦100 μM	NI at ≦100 μM	NI at ≦100 μM	100 (≈ 223 µg/mL)	12.5 (≈ 27.8 µg/mL)	100 (≈ 223 µg/mL)	25 (≈ 55.7 µg/mL)	25 (≈ 55.7 µg/mL)	50 (≈ 111 µg/mL)	12.5 (≈ 27.8 µg/mL)	25 (≈ 55.7 µg/mL)	100 (≈ 223 µg/mL)	12.5 (≈ 27.8 µg/mL)	100 (≈ 223 µg/mL)	MIC [5]: 12.5 µM (≈ 27.8 µg/mL); MIC [6]: 3.38 µM (≈ 7.53 µg/mL)
Gly-Lys-Pro-Arg-Pro-Tyr-Ser*-Pro-Arg-Pro-Thr-Ser-His-Pro-Arg-Pro-Ile-Arg-Val																					fragment found (mammalian serum): metabolite lacking five amino terminal residues; also recorded: metabolite lacking two carboxy terminal residues; fragment found [7]: metabolites lacking five amino terminal residues; also recorded: metabolites lacking two carboxy terminal residues
Gly-Lys-Pro-Arg-Pro-Tyr-Ser*-Pro-Arg-Pro-Thr-Ser-His-Pro-Arg-Pro-Ile-Arg-Val [native, glycosylated peptide]																					activity against Gram-negative bacteria (Gram-negative bacteria): moderately active; time needed to kill bacteria in vivo (Gram-negative bacteria): 24 h; antibacterial activity when injected into mice [8]: no antibacterial activity; degradation in mammalian serum [9]: completely degraded within a four hour period
